This passage reports T/C results from PubChem BioAssay AID330 (DTP/NCI, 2004).

Where “and” joins values, the source holds several entries; their conditions need not be identical. Equal values may be shown once. Inconclusive results and toxic doses are left out. Peptide text beside a SMILES is read from it. * marks the point of attachment. Trt = c1ccc(C(c2ccccc2)(c2ccccc2)*)cc1

This test has as its system P388 leukemia ip, CD2F1 mice, survival T/C. In words: NCI In Vivo Anticancer Drug Screen. Data for tumor model P388 Leukemia (intraperitoneal) in CD2F1 (CDF1) mice. To be noted: endpoint: median survival time, higher = longer survival. The method, boiled down:
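Mice carrying the transplanted tumor received test compound or vehicle. Survival was recorded in each group, and the value is the treated-group measurement divided by that of the vehicle-treated control group.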

Where [1] appears, read: dose: 50.0 mg/kg/injection, schedule: Q01DX005 (ip), vehicle: Klucel (hydroxypropylcellulose) (HPC).
[2] abbreviates: dose: 100.0 mg/kg/injection, schedule: Q01DX005 (ip), vehicle: Klucel (hydroxypropylcellulose) (HPC).
[3] abbreviates: dose: 200.0 mg/kg/injection, schedule: Q01DX005 (ip), vehicle: Klucel (hydroxypropylcellulose) (HPC).
Setting [4] is: dose: 50.0 mg/kg/injection, schedule: Q01DX009 (ip), vehicle: saline with Tween-80.
[5] abbreviates: dose: 100.0 mg/kg/injection, schedule: Q01DX009 (ip), vehicle: saline with Tween-80.
[6] abbreviates: dose: 60.0 mg/kg/injection, schedule: Q01DX005 (ip), vehicle: saline with Tween-80.
[7] abbreviates: dose: 120.0 mg/kg/injection, schedule: Q01DX005 (ip), vehicle: saline with Tween-80.
[8] abbreviates: dose: 240.0 mg/kg/injection, schedule: Q01DX005 (ip), vehicle: saline with Tween-80.
The mark [9] stands for this setting: dose: 200.0 mg/kg/injection, schedule: Q01DX009 (ip), vehicle: saline with Tween-80.
Setting [10] is: dose: 12.5 mg/kg/injection, schedule: Q01DX009 (ip), vehicle: saline with Tween-80.
[11] abbreviates: dose: 25.0 mg/kg/injection, schedule: Q01DX009 (ip), vehicle: saline with Tween-80.
Where [12] appears, read: dose: 12.5 mg/kg/injection, schedule: Q04DX003 (ip), vehicle: saline with Tween-80.
[13] abbreviates: dose: 25.0 mg/kg/injection, schedule: Q04DX003 (ip), vehicle: saline with Tween-80.
[14] abbreviates: dose: 200.0 mg/kg/injection, schedule: Q04DX003 (ip), vehicle: saline with Tween-80.

For `C/C(=C1/N=C(c2ccccc2)OC1=O)c1ccc(C)cc1`, the T/C is 106 % of control under setting [1], 90 % of control under setting [2] and 106 % of control under setting [3].
Turning to `CCc1cccc(NC(=O)SCc2ccccc2)c1`, the T/C under setting [4] was 94 % of control and the T/C under setting [5] was 98 % of control.
Regarding `Cc1cc(=O)oc2cc3occc(=O)c3cc12`, the T/C by setting is: under setting [6], 98 % of control; under setting [7], 95 % of control; under setting [8], 92 % of control.
On to `CSC(=S)c1ccc(NSc2ccccc2[N+](=O)[O-])cc1`, for which the T/C was 113 % of control (dose: 100.0 mg/kg/injection, schedule: Q04DX003 (ip), vehicle: saline); 110 % of control (dose: 200.0 mg/kg/injection, schedule: Q04DX003 (ip), vehicle: saline); 93 % of control (dose: 400.0 mg/kg/injection, schedule: Q04DX003 (ip), vehicle: saline).
For `CO/N=C/c1ccc([N+](=O)[O-])s1`, the T/C is 90 % of control (dose: 12.0 mg/kg/injection, schedule: Q01DX001 (ip), vehicle: other); 104 % of control (dose: 25.0 mg/kg/injection, schedule: Q01DX001 (ip), vehicle: other); 100 % of control (dose: 50.0 mg/kg/injection, schedule: Q01DX001 (ip), vehicle: other).
As for `COC(=O)C(CC(C)C)NC(=O)C(N)CSC(c1ccccc1)(c1ccccc1)c1ccccc1` (stereo unspecified) (H-Cys(Trt)-Leu-OMe; configuration not given here), the T/C (dose: 60.0 mg/kg/injection, schedule: Q01DX005 (ip), vehicle: Klucel (hydroxypropylcellulose) (HPC)) was 113 % of control.
For `CCCC(NC(=O)c1ccccc1)C(=O)O` (stereo unspecified), the T/C was 100 % of control under setting [4], 99 % of control under setting [5] and 99 % of control under setting [9].
With `O=S1(=O)CCC2C1C1(Cl)C(Cl)=C(Cl)C2(Cl)C1(Cl)Cl` (stereo unspecified), the T/C is 100 % of control (dose: 6.25 mg/kg/injection, schedule: Q01DX009 (ip), vehicle: saline); 100 % of control (dose: 12.5 mg/kg/injection, schedule: Q01DX009 (ip), vehicle: saline); 100 % of control (dose: 25.0 mg/kg/injection, schedule: Q01DX009 (ip), vehicle: saline).
As for `C[n+]1ccccc1/C=C/c1cccc([N+](=O)[O-])c1`, the T/C was 100 % of control (dose: 5.0 mg/kg/injection, schedule: Q01DX009 (ip), vehicle: saline with Tween-80); 109 % of control (dose: 10.0 mg/kg/injection, schedule: Q01DX009 (ip), vehicle: saline with Tween-80); 100 % of control (dose: 20.0 mg/kg/injection, schedule: Q01DX009 (ip), vehicle: saline with Tween-80).
For the molecule `CC[C@@H]1C[C@@H]2CN3CCc4c([nH]c5cc(Cc6ccc(OC)c(OC)c6)c(OC)cc45)C(C(=O)OC)(C2)C13`, the T/C runs as follows: (dose: 0.5 mg/kg/injection, schedule: Q01DX009 (ip), vehicle: Klucel (hydroxypropylcellulose) (HPC)) 96 % of control; (dose: 1.0 mg/kg/injection, schedule: Q01DX009 (ip), vehicle: Klucel (hydroxypropylcellulose) (HPC)) 107 % of control; (dose: 2.0 mg/kg/injection, schedule: Q01DX009 (ip), vehicle: Klucel (hydroxypropylcellulose) (HPC)) 111 % of control; (dose: 4.0 mg/kg/injection, schedule: Q01DX009 (ip), vehicle: Klucel (hydroxypropylcellulose) (HPC)) 107 % of control and 97 % of control; (dose: 8.0 mg/kg/injection, schedule: Q01DX009 (ip), vehicle: Klucel (hydroxypropylcellulose) (HPC)) 101 % of control; (dose: 16.0 mg/kg/injection, schedule: Q01DX009 (ip), vehicle: Klucel (hydroxypropylcellulose) (HPC)) 98 % of control.
As to `COc1ccc(Cc2cc3c(cc2OCC(=O)N2CCOCC2)OCO3)cc1`, the T/C under setting [1] is 97 % of control, the T/C under setting [2] is 89 % of control and the T/C under setting [3] was 97 % of control.
On to `C/C(=N\NC(=S)N1CCN(c2cnccn2)CC1)c1ccccn1`, for which the T/C was 120 % of control (dose: 3.75 mg/kg/injection, schedule: Q01DX005 (ip), vehicle: saline with Tween-80); 120 % of control and 122 % of control (dose: 7.5 mg/kg/injection, schedule: Q01DX005 (ip), vehicle: saline with Tween-80).
`CSCCC1NC(=O)C(C(C)=Nc2ccccc2)=C1O` (stereo unspecified): the T/C was 94 % of control under setting [4]; 92 % of control under setting [5]; 98 % of control under setting [9]; 99 % of control (dose: 400.0 mg/kg/injection, schedule: Q01DX009 (ip), vehicle: saline with Tween-80).
Take `CC1=NNB(O)c2sccc21`: the T/C is, setting by setting: under setting [4], 90 % of control; under setting [5], 100 % of control; under setting [9], 91 % of control.
On to `Cc1[nH]c(C(=O)O)cc(=O)c1C`, for which the T/C is, setting by setting: (dose: 25.0 mg/kg/injection, schedule: Q01DX009 (ip), vehicle: other) 103 % of control; (dose: 50.0 mg/kg/injection, schedule: Q01DX009 (ip), vehicle: other) 103 % of control; (dose: 100.0 mg/kg/injection, schedule: Q01DX009 (ip), vehicle: other) 101 % of control; (dose: 200.0 mg/kg/injection, schedule: Q01DX009 (ip), vehicle: other) 99 % of control; (dose: 400.0 mg/kg/injection, schedule: Q01DX009 (ip), vehicle: other) 97 % of control.
Regarding `CCCCCCC(/C=C/c1ccc(Cl)c(Cl)c1)=N\NC(=O)C[N+](C)(C)C`, the T/C is 100 % of control under setting [10]; 103 % of control under setting [11]; 98 % of control (dose: 50.0 mg/kg/injection, schedule: Q01DX009 (ip), vehicle: saline).
`CCCCCCCCCCCCSSC(=S)OC(C)C`: the T/C was 100 % of control (dose: 50.0 mg/kg/injection, schedule: Q01DX009 (ip), vehicle: saline + Tween-80 + alcohol); 116 % of control (dose: 100.0 mg/kg/injection, schedule: Q01DX009 (ip), vehicle: saline + Tween-80 + alcohol); 122 % of control (dose: 200.0 mg/kg/injection, schedule: Q01DX009 (ip), vehicle: saline + Tween-80 + alcohol); 119 % of control (dose: 400.0 mg/kg/injection, schedule: Q01DX009 (ip), vehicle: saline + Tween-80 + alcohol).
As for `CN=C(C)c1ccc(N(C)C)cc1`, the T/C is, setting by setting: under setting [12], 100 % of control; under setting [13], 100 % of control and 105 % of control; (dose: 50.0 mg/kg/injection, schedule: Q04DX003 (ip), vehicle: saline with Tween-80) 110 % of control and 97 % of control; (dose: 100.0 mg/kg/injection, schedule: Q04DX003 (ip), vehicle: saline with Tween-80) 105 % of control and 115 % of control; under setting [14], 100 % of control and 120 % of control.
Regarding `COC(=O)CCc1ccc(NP(=O)(N2CC2)N2CC2)cc1`, the T/C by setting is: under setting [12], 100 % of control; under setting [13], 115 % of control; under setting [5], 150 % of control; (dose: 132.0 mg/kg/injection, schedule: Q04DX003 (ip), vehicle: saline with Tween-80) 150 % of control; under setting [9], 90 % of control; under setting [14], 156 % of control. Moreover, where the note is “dose: 300.0 mg/kg/injection, schedule: Q04DX003 (ip), vehicle: saline with Tween-80”, the T/C was 90 % of control.
For `Cc1c2ncccc2c(C)c2c1[nH]c1ccccc12`, the T/C (dose: 25.0 mg/kg/injection, schedule: Q04DX002 (ip), vehicle: saline with Tween-80) is 100 % of control; the T/C (dose: 50.0 mg/kg/injection, schedule: Q04DX002 (ip), vehicle: saline with Tween-80) is 91 % of control; the T/C (dose: 100.0 mg/kg/injection, schedule: Q04DX002 (ip), vehicle: saline with Tween-80) was 98 % of control; the T/C (dose: 200.0 mg/kg/injection, schedule: Q04DX002 (ip), vehicle: saline with Tween-80) is 89 % of control.
`N=c1c(C(N)=O)nc(/C=C/c2ccccc2)cn1O`: the T/C under setting [10] is 90 % of control, the T/C under setting [11] was 90 % of control and the T/C under setting [4] is 96 % of control.
In the case of `O/N=C\C[n+]1cc2ccccc2cc1/C=N\O`, the T/C runs as follows: (dose: 50.0 mg/kg/injection, schedule: Q01DX005 (ip), vehicle: saline with Tween-80) 112 % of control; (dose: 100.0 mg/kg/injection, schedule: Q01DX005 (ip), vehicle: saline with Tween-80) 109 % of control.
As for `CCOC(=O)Nc1ccc(C2SCCN2C(=O)NC)cc1` (stereo unspecified), the T/C under setting [6] is 109 % of control, the T/C under setting [7] was 103 % of control and the T/C under setting [8] is 100 % of control.
With `CC1(C)OC2OC(C3COC(=S)O3)C(O)C2O1` (stereo unspecified), the T/C is 98 % of control under setting [1], 99 % of control under setting [2] and 103 % of control under setting [3].
